This is an account of results in patent US9630958B2, “Triazine compounds” (Sphaera Pharma Pte. Ltd., priority 2012, dated 2017).

Some results are limits rather than exact numbers.

One assay concerns the target T1, Recombinant mTOR (FRAP1) (Homo sapiens, UniProt P42345).
T1 construct: purchased Invitrogen
The experiment in a line: mTOR in vitro kinase assay (TR-FRET, phosphorylation of GFP-4E-BP1). The assay is classed as biochemical. The settings on record: for IC50: 8 μM ATP, 400 nM GFP-4E-BP1; for inhibition at 1 µM: 1 uM compound, read-out: mTOR % Inhib@1 uM. As for the experimental part:
Compounds were evaluated for mTOR activity using an in vitro kinase assay.
mTOR activity is measured in vitro by determining the level of phosphorylation of the protein substrate 4EBP-1. The phosphorylation of GFP-4E-BP1 at threonine residue is recognized by Ab Tb-Anti-p4EBP1, which results in time resolved fluorescence energy transfer (TR-FRET) between GFP and Terbium in the Ab-Protein complex.
Recombinant mTOR (FRAP1), Kinase reaction buffer, GFP-4E-BP1 and LanthaScreen Tb-anti-4E-BP1 (pThr46), TR FRET dilution buffer, Kinase Quench Buffer were obtained from Invitrogen.
Kinase reactions were performed in 10 μl volume in Corning white 384 well plates. […] The reaction was initiated by the addition of substrate (GFP-4E-BP1) and ATP at a final conc. of 400 nM and 8 μM ATP in the reaction respectively. The kinase reaction was allowed to proceed for 1 hour at room temperature before a 10 μL preparation of kinase quench buffer and Tb-labeled Antibody in TR-FRET dilution buffer was added. The final concentration of the antibody in the assay well is 2 nM and the final concentration of EDTA is 10 mM. The plate was incubated at room temperature for 1 h.
(§1) FRET signal was read in Envision Multilabel Reader with the following filters:
Excitation-330 nm and Emission 486 nm (donor) and 520 nm (acceptor).
TR FRET Ratio (Fluorescence 520 nm/Fluorescence 486 nm) was plotted against the concentration of inhibitor and data was fit to Non Linear Regression curve fit (sigmoidal dose response curve with variable slope-four parameters) using Graph Pad Prism 5.

Assay [1] deals with T2, PI3 Kinase alpha (p110 alpha/p85 alpha) (Homo sapiens, UniProt P42336).
T2 construct: purchased Invitrogen
In words: PI3K TR-FRET assay (Transcreener ADP2). The note with it: for inhibition at 1 µM: 1 uM compound, read-out: PI3K % Inhib@1 uM; for IC50: PI3K alpha, 1 μM ATP, 50 μM PIP2. The format is biochemical. As for the experimental part:
Enzymatic activity of PI3K alpha was measured using Time resolved Fluorescence resonance energy transfer (TR-FRET) assay. This assay utilizes ADP detection as a means to screen inhibitor potency of compounds. The Transcreener ADP2 TR-FRET Red Assay is a competitive immunoassay for ADP with a far-red, TR-FRET readout and it has been used for this purpose. The assay can be used for any enzyme class that produces ADP (Kinases, ATPases). It consists of ADP HiLyte647 Tracer, ADP^2 Antibody-Tb conjugate (800 nM), stop & detect buffer, 5 mM ATP, 5 mM ADP. The ADP HiLyte647 Tracer is bound to an ADP^2 Antibody-Tb conjugate. The excitation of the terbium complex in the UV range results in energy transfer to the tracer and emission at a higher wavelength after a time delay ADP produced by the target enzyme displaces the tracer which causes decrease in TR-FRET.
The reaction buffer used for the assay was 50 mM HEPES, pH 7.4.3 mM MgCl2, 0.05% CHAPS, 50 mM NaCl, 2 mM DTT, 1 mM EGTA. PI3 Kinase alpha (p110 alpha/p85 alpha) and PIP2 Substrate (diC8,) were procured from Invitrogen and Echelon respectively.
Kinase reactions were performed in 10 μl volume in Corning white 384 well plates. […] Reaction was initiated by the addition of substrate (PIP2) and ATP at final conc. of 50 μM and 1 μM ATP in the reaction respectively. Kinase reactions were allowed to proceed for 1 hour at room temperature before a 10 μL preparation of Transcreener ADP detection mix was added. Plate was incubated at room temperature for 1 hr. ADP-ATP standard curves were also prepared.
as §1
Excitation-330 nm and Emission 615 nm (donor) and 665 nm (acceptor). TR FRET Ratio (Fluorescence 665 nm/Fluorescence 615 nm) was converted to amount of product formed using the standard curve generated. Percentage inhibition was calculated and plotted against the concentration of inhibitor and data was fit to Non Linear Regression curve fit (sigmoidal dose response curve with variable slope-four parameters) using Graph pad prism 5 and IC50 was calculated for the compound.

T1 sequence (P42345 1360-2549 limits assumed): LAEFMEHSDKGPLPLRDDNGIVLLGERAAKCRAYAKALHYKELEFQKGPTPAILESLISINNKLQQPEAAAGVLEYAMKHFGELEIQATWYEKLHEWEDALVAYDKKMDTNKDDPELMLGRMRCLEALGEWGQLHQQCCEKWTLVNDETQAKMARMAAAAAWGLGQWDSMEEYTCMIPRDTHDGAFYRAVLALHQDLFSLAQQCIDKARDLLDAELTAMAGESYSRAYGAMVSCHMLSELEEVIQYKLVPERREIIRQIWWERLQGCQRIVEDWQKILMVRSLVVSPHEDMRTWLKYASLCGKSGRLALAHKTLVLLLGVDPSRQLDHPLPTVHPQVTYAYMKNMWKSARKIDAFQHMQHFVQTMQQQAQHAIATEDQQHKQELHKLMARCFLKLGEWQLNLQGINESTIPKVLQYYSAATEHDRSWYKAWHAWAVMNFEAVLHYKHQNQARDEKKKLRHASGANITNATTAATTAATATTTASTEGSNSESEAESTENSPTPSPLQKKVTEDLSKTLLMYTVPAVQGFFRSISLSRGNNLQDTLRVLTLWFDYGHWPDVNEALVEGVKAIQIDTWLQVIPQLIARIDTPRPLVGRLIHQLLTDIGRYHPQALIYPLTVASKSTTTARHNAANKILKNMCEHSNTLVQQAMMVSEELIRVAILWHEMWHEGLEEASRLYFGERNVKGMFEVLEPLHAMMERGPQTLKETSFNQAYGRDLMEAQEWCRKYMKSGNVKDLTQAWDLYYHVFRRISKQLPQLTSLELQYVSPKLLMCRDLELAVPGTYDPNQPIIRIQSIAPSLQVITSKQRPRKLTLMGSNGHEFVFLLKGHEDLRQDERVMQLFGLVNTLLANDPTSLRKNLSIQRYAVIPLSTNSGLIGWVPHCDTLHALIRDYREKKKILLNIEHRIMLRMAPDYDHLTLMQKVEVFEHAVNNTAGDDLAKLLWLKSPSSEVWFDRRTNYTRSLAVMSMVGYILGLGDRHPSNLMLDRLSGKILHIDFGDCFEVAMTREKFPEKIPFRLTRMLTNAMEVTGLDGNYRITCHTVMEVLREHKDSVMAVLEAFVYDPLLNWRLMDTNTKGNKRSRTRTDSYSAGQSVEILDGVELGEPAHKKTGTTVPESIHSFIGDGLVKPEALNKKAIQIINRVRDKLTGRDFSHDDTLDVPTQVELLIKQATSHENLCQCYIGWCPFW
T2 sequence (P42336 whole entry): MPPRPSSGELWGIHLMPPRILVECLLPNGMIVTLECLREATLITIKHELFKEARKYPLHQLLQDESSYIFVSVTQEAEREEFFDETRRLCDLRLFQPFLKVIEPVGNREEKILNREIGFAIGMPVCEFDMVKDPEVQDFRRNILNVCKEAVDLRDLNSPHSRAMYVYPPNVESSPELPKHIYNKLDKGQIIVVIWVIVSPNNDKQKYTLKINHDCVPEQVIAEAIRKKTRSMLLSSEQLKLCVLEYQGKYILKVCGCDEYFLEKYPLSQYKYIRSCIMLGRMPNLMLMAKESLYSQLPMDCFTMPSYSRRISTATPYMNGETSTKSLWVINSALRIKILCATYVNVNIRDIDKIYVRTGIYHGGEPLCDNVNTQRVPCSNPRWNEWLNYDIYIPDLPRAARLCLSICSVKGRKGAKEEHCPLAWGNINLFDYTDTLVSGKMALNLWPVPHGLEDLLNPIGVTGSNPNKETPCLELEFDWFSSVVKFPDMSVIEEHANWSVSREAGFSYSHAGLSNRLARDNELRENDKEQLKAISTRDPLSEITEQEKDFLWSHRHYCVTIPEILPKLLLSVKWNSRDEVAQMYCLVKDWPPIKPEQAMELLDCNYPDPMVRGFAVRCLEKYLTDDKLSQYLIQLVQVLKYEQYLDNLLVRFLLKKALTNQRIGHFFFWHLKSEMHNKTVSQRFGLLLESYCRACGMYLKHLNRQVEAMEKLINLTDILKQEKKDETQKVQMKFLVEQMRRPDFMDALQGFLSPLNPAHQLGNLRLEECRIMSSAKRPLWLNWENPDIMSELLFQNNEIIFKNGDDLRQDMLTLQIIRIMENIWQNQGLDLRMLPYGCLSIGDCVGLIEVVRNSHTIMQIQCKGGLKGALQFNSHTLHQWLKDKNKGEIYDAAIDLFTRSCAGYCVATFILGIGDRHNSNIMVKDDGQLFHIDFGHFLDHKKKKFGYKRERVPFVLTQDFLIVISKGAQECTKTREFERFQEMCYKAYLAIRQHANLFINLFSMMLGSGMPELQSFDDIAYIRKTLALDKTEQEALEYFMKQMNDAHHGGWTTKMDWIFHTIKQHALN
T2 sequence (P27986 whole entry partner): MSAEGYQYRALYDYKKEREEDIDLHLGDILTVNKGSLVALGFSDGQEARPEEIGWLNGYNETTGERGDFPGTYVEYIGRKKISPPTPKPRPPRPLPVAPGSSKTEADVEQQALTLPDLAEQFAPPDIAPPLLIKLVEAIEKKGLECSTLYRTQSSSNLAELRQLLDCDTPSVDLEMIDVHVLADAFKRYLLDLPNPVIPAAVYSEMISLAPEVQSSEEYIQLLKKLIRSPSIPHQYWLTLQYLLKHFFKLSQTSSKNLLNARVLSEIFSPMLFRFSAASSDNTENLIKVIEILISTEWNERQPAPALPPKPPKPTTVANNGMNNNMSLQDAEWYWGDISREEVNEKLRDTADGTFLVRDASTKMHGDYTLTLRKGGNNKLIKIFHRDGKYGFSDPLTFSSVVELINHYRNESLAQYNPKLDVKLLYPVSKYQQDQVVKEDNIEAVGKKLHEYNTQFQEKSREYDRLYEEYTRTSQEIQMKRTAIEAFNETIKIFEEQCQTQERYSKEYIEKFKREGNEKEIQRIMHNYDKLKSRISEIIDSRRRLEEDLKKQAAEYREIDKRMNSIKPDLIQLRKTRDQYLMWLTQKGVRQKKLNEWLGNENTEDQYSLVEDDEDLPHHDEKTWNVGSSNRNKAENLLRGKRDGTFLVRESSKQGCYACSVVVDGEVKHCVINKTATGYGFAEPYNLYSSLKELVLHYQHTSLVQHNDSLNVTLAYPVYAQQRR

With `C[C@H]1CN(c2nc(Oc3ccc(C(=O)N(C)C)cc3F)nc(-c3ccc4[nH]ncc4c3)n2)[C@@H](C)CO1` [Compound 10063, 4-((4-((25,3S)-2,5-dimethylmorpholino)-6-(1H-indazol-5-yl)-1,3,5-triazin-2-yl)oxy)-3-fluoro-N,N-dimethylbenzamide], the IC50 at Recombinant mTOR (FRAP1) was under 1 µM. In addition, the inhibition at 1 µM in assay [1] was under 50%.

Regarding `CN(C)C(=O)c1ccc(Oc2nc(-c3ccc(N)nc3)nc(N3[C@@H]4CC[C@H]3COC4)n2)cc1` [Compound 10050, 4-(4-(6-aminopyridin-3-yl)-6-((1R,5S)-3-oxa-8-azabicyclo[3.2.1]octan-8-yl)-1,3,5-triazin-2-yloxy)-N,N-dimethylbenzamide], on Recombinant mTOR (FRAP1), the inhibition at 1 µM is over 50% and the IC50 is under 1 µM. This compound also showed an IC50 in assay [1] of over 1 µM.

In the case of `C[C@H]1CN(c2nc(Oc3ccc(C(=O)N(C)C)cc3F)nc(-c3cnc(N)s3)n2)[C@@H](C)CO1` [Compound 10153, 4-(4-(2-aminothiazol-5-yl)-6-((2S,5S)-2,5-dimethylmorpholino)-1,3,5-triazin-2-yloxy)-3-fluoro-N,N-dimethylbenzamide], the IC50 on Recombinant mTOR (FRAP1) was under 1 µM. In assay [1], the inhibition at 1 µM is under 50% and the IC50 was under 1 µM.

As to `CN(C)C(=O)c1ccc(Oc2nc(-c3cnc(N)s3)nc(N3CCCCC3)n2)cc1` [Compound 10119, 4-(4-(2-aminothiazol-5-yl)-6-(piperidin-1-yl)-1,3,5-triazin-2-yloxy)-N,N-dimethylbenzamide], the inhibition at 1 µM on Recombinant mTOR (FRAP1) is under 50%. In assay [1], this compound came in with a half-inhibitory concentration (IC50) of over 10 µM.

Consider `CN(C)C(=O)c1ccc(Oc2nc(-c3cnc(N)s3)nc(N3CC4CCC(C3)O4)n2)c(F)c1` [Compound 10154, 4-(4-(8-oxa-3-aza-bicyclo[3.2.1]octan-3-yl)-6-(2-aminothiazol-5-yl)-1,3,5-triazin-2-yloxy)-3-fluoro-N,N-dimethylbenzamide], for which the IC50 on Recombinant mTOR (FRAP1) is under 1 µM. Further, in assay [1], the inhibition at 1 µM was under 50% and the IC50 is over 1 µM.

As for `CN(C)C(=O)c1ccc(Oc2nc(-c3cnc(N)s3)nc(N3CCOc4ccccc43)n2)cc1` [Compound 10029, 4-(4-(2-aminothiazol-5-yl)-6-(2H-benzo[b][1,4]oxazin-4(3H)-yl)-1,3,5-triazin-2-yloxy)-N,N-dimethylbenzamide], the inhibition at 1 µM on Recombinant mTOR (FRAP1) was over 50%; in assay [1] it was under 50%. Besides, the IC50 was under 1 µM on Recombinant mTOR (FRAP1) and over 1 µM in assay [1].

`CN(C)C(=O)c1ccc(Oc2nc(-c3cnc(N)[nH]3)nc(N3CCOCC3)n2)cc1` [Compound 10124, 4-(4-(2-amino-1H-imidazol-5-yl)-6-morpholino-1,3,5-triazin-2-yloxy)-N,N-dimethylbenzamide]: the inhibition at 1 µM (on Recombinant mTOR (FRAP1); in assay [1]) was under 50% in each case.

`C[C@@H]1COCCN1c1nc(Oc2ccc(C(=O)N(C)C)cc2F)nc(-c2ccc(N)nc2)n1` [Compound 10099, (R)-4-((4-(6-Aminopyridin-3-yl)-6-(3-methylmorpholino)-1,3,5-triazin-2-yl)oxy)-3-fluoro-N,N-dimethylbenzamide]: on Recombinant mTOR (FRAP1), the IC50 was under 1 µM. Besides, in assay [1], the inhibition at 1 µM was over 50% and the IC50 was under 1 µM.

On to `C[C@H]1COCCN1c1nc(Oc2ccc(C(=O)N(C)C)cc2F)nc(-c2ccc3[nH]ccc3c2)n1` [Compound 10100, (S)-4-((4-(1H-indol-5-yl)-6-(3-methylmorpholino)1,3,5-triazin-2-yl)oxy)3-fluoro-N,N-dimethylbenzamide], for which, at Recombinant mTOR (FRAP1), the inhibition at 1 µM is over 50% and the IC50 is under 1 µM. In assay [1], this compound showed an IC50 of under 1 µM.

Regarding `CN(C)C(=O)c1ccc(Oc2nc(-c3cnc(N)s3)nc(N3CCNC(=O)CC3)n2)cc1` [Compound 10071, 4-((4-(2-Aminothiazol-5-yl)-6-(5-oxo-1,4-diazepan-1-yl)-1,3,5-triazin-2-yl)oxy)-N,N-dimethylbenzamide], the inhibition at 1 µM (on Recombinant mTOR (FRAP1); in assay [1]) was under 50% in each case.

For the compound `CN(C)C(=O)[C@H]1CC[C@H](Oc2nc(-c3ccc(N)nc3)nc(N3CCOCC3)n2)CC1` [Compound 10049, (1r,4r)-4-(4-(6-aminopyridin-3-yl)-6-morpholino-1,3,5-triazin-2-yloxy)-N,N-dimethylcyclohexanecarboxamide], at Recombinant mTOR (FRAP1), the inhibition at 1 µM was over 50% and the IC50 was under 1 µM. The IC50 in assay [1] is under 1 µM.

In the case of `CN(C)C(=O)c1ccc(Oc2nc(-c3cnc(N)cc3C(F)(F)F)nc(N3CCOCC3)n2)c(F)c1` [Compound 10065, 4-((4-(6-Amino-4-(trifluoromethyl)pyridine-3-yl)-6-morpholino-1,3,5-triazin-2-yl)oxy)-3-fluoro-N,N-dimethylbenzamide], the IC50 (at Recombinant mTOR (FRAP1); in assay [1]) was under 1 µM each time.

Turning to `CNC(=O)Nc1ncc(-c2nc(NC)nc(N3CCOC[C@@H]3C)n2)s1` [Compound 10135, 1-methyl-3-(5-(4-(methylamino)-6-((S)-3-methylmorpholino)-1,3,5-triazin-2-yl)thiazol-2-yl)urea], the inhibition at 1 µM (at Recombinant mTOR (FRAP1); in assay [1]) was under 50% in each case.

With `CN(C)C(=O)c1ccc(Oc2nc(-c3cnc(N)s3)nc(N3CCNC(=O)C3)n2)cc1` [Compound 10072, 4-((4-(2-Aminothiazol-5-yl)-6-(3-oxopiperazin-1-yl)-1,3,5-triazin-2-yl)oxy)-N,N-dimethylbenzamide], the inhibition at 1 µM (at Recombinant mTOR (FRAP1); in assay [1]) was under 50% each time.

For `CN(C)C(=O)Cc1ccc(Oc2nc(-c3cnc(N)nc3)nc(N3CCOCC3)n2)cc1` [Compound 10189, 2-(4-((4-(2-aminopyrimidin-5-yl)-6-morpholino-1,3,5-triazin-2-yl)oxy)phenyl)-N,N-dimethylacetamide], the inhibition at 1 µM on Recombinant mTOR (FRAP1) is under 50%. For the same compound, the IC50 in assay [1] was under 1 µM.

With `C[C@@H]1COC[C@H](C)N1c1nc(Oc2ccc(C(=O)N(C)C)cc2)nc(-c2cnc(N)s2)n1` [Compound 10079, 4-((4-(2-Aminothiazol-5-yl)-6-((3S,5R)-3,5-dimethylmorpholino)-1,3,5-triazin-2-yl)oxy)-N,N-dimethybenzamide], on Recombinant mTOR (FRAP1), the IC50 is under 1 µM. Also, in assay [1], the inhibition at 1 µM is under 50% and the IC50 was over 1 µM.

For the compound `C[C@@H]1OCCN(c2nc(Oc3ccc(C(=O)N(C)C)cc3)nc(-c3cnc(N)s3)n2)[C@H]1C` [Compound 10142, 4-(4-(2-aminothiazol-5-yl)-6-((2S,3S)-2,3-dimethylmorpholino)-1,3,5-triazin-2-yloxy)-N,N-dimethylbenzamide], the IC50 on Recombinant mTOR (FRAP1) was under 1 µM; in assay [1], over 10 µM.

As for `C[C@@H]1OCCN(c2nc(Oc3ccc(C(=O)N(C)C)cc3F)nc(-c3cnc(N)s3)n2)[C@H]1C` [Compound 10053, 4-((4-(2-Aminothiazol-5-yl)-6-((2S,3S)-2,3-dimethylmorpholino)-1,3,5-triazin-2-yl)oxy)-3-fluoro-N,N-dimethylbenzamide], the IC50 at Recombinant mTOR (FRAP1) was under 1 µM; in assay [1] it was over 1 µM.

Take `C[C@H]1COCCN1c1nc(OC2CCN(C(=O)N(C)C)CC2)nc(-c2cnc(N)s2)n1` [Compound 10137, 4-(4-(2-aminothiazol-5-yl)-6-((S)-3-methylmorpholino)-1,3,5-triazin-2-yloxy)-N,N-dimethylpiperidine-1-carboxamide]: the inhibition at 1 µM on Recombinant mTOR (FRAP1) was over 50%. In addition, the IC50 (at Recombinant mTOR (FRAP1); in assay [1]) was under 1 µM in each case.
